In ChEMBL document CHEMBL1201862, “PubChem BioAssay data set” (2004):
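Cells were grown in 96-well plates and exposed to each compound for 48 hours at five concentrations; endpoints were interpolated linearly between bracketing concentrations, or set to the highest concentration if not reached. GI50 is the concentration that inhibits growth by half.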 Active and inactive are the calls of the source. Rule as the data show it: active = GI50 up to about 1.1 µM and inactive = higher.

What was measured:
Assay in all cases: NCI anticancer screen, dose series, 48 h
DLD-1 = test system: DLD-1
XF498 = test system: XF498
NCI-H522 = test system: NCI-H522
SNB-78 = test system: SNB-78
Malme-3M = test system: Malme-3M
SF-295 = test system: SF-295
SK-OV-3 = test system: SK-OV-3
MOLT-4 = test system: MOLT-4
KM-20L2 = test system: KM-20L2
U-251 = test system: U-251
HOP-92 = test system: HOP-92
RXF 393 = test system: RXF 393
NCI-H460 = test system: NCI-H460
SK-MEL-2 = test system: SK-MEL-2
ACHN = test system: ACHN

Measured: GI50

OC12c3ccccc3C1CCCCCCCCCC21OCCCO1 (stereo not given)
inactive: DLD-1 > 100 µM | XF498 > 100 µM | NCI-H522 > 100 µM | SNB-78 > 100 µM | Malme-3M > 100 µM | SF-295 > 100 µM | SK-OV-3 > 100 µM

CCN(CC)CCC(=O)c1ccccc1
inactive: MOLT-4 19.2 µM | KM-20L2 21.5 µM | U-251 23.3 µM | HOP-92 13.1 µM | RXF 393 20.4 µM | NCI-H460 30.8 µM | SK-MEL-2 > 100 µM | ACHN 16.2 µM
